Counter-ions that a name gives are not always drawn. Like-named read-outs stand apart in the source and are kept apart here.
How the values were obtained:
NMDA = NMDA (Rattus norvegicus, UniProt P35439)
Excerpt: The specific ligand binding to the receptors was defined as the difference between the total binding and the nonspecific binding determined in the presence of an excess of unlabelled ligand. The results were expressed as a percent of control specific binding ((measured specific binding/control specific binding)×100) and as a percent inhibition of control specific binding (100-((measured specific binding/control specific binding)×100)) obtained in the presence of the test compounds. The IC50 values (concentration causing a half-maximal inhibition of control specific binding) and Hill coefficients (nH) were determined by non-linear regression analysis of the competition curves generated with mean replicate values using Hill equation curve fitting (Y=D+[(A−D)/(1+(C/C50)^nH)], where Y=specific binding, D=minimum specific binding, A=maximum specific binding, C=compound concentration, C50=IC50, and nH=slope factor). This analysis was performed using validated proprietary software. The inhibition constants (Ki) were calculated using the Cheng Prusoff equation Ki=IC50/(1+(L/KD)), where L=concentration of radioligand in the assay, and KD=affinity of the radioligand for the receptor). A scatchard plot was used to determine the Kd.

5-HT uptake = molecular target: T1, 5-HT uptake (Rattus norvegicus, UniProt P31652); assay: 5-HT uptake assay; type: biochemical; conditions: rat brain synaptosomes
T1 construct: [^3H]5-HT incorporation into rat brain synaptosomes; from tissue; host or cells: rat brain synaptosomes
Experimental: (§1) This analysis was performed using validated proprietary software.

norepinephrine uptake = molecular target: T2, norepinephrine uptake (Rattus norvegicus, UniProt Q63380); assay: norepinephrine uptake assay; type: biochemical; conditions: rat hypothalamus synaptosomes
T2 construct: [^3H]NE incorporation into rat hypothalamus synaptomsomes; from tissue; host or cells: rat hypothalamus synaptosomes
Experimental: as §1

[1] = cited from earlier work; for plasma half life: American Pain Society 2008; for half-life of oral levorphanol: Dixon et al 1983
[2] = tested on: serotonin reuptake and norepinephrine reuptake in rat brain synaptosomes; assay: norepinephrine and serotonin reuptake inhibition in rat brain synaptosomes; type: biochemical
[3] = published pharmacokinetics of oral levorphanol (prescribing information, American Pain Society, Dixon et al)
[4] = tested on: thermal nociception (tail flick test); assay: Tail flick test of thermal nociception; type: in vivo, rat; conditions: compared with morphine
Experimental: Objective: To evaluate the efficacy and potency of levorphanol and to compare its potency relative to that of morphine in a model of thermal nociception (tail flick test).
Methods: Male Sprague-Dawley rats (200-300 grams) were used. Antinociceptive activity was determined by a significant increase in the latency to a reflexive flicking of the tail away from a radiant heat (infrared) source projected onto a small area on the ventral aspect of the tail. Baseline tail flick latencies were determined prior to any drug administration. The antinociceptive effect of levorphanol was determined 30, 45 and 60 minutes after dosing. […] Tail flick latencies for each time-point were compared to the mean baseline response by ANOVA followed by the post-hoc Fisher's Least Significant Difference test. A significant increase from the baseline was considered antinociceptive. […] Dose-response curves along with A50 values (i.e., dose calculated to produce a 50% MPE) and confidence intervals were determined from linear regression analysis of the log dose-effect curves. Significant differences in potency between 2 dose-response curves were determined by applying the Student's t-statistic to variances of the A50 values obtained for each dose-response curve.

[5] = tested on: thermal nociception (hot-plate test); assay: 53° C. hot-plate test of thermal nociception; type: in vivo, rat; conditions: compared with morphine
Experimental: Methods: Male Sprague-Dawley rats (200-300 grams) were used. Antinociceptive activity was determined by the 53° C. hot-plate test. The rat is placed on a metal plate heated to 53° C., and the latency to withdrawing or shaking or licking of a paw, or escape attempts by jumping were documented. A cut-off latency of 15 sec was employed. Drugs were prepared administered after baseline measurements were performed. Behavioral testing was performed 30, 45 and 60 minutes after dosing. The levorphanol data for were compared to historical morphine data. […] Dose-response curves along with A50 values (i.e., dose calculated to produce a 50% MPE) and confidence intervals were determined from linear regression analysis of the log dose-effect curves. Significant differences in potency between 2 dose-response curves were determined by applying the Student's t-statistic to variances of the A50 values obtained for each dose-response curve. The antinociceptive effect of levorphanol was determined in the 53° C. rat hot-plate test 30, 45 and 60 minutes after dosing. Hot-plate latencies for each time-point were compared to the mean baseline response by ANOVA followed by the post-hoc Fisher's Least Significant Difference test.

[6] = American Pain Society 2008, cited from earlier work
[7] = IC50, expressed as levorphanol base
[8] = IC50, expressed as levorphanol tartrate

T2 sequence (Q63380 1-617): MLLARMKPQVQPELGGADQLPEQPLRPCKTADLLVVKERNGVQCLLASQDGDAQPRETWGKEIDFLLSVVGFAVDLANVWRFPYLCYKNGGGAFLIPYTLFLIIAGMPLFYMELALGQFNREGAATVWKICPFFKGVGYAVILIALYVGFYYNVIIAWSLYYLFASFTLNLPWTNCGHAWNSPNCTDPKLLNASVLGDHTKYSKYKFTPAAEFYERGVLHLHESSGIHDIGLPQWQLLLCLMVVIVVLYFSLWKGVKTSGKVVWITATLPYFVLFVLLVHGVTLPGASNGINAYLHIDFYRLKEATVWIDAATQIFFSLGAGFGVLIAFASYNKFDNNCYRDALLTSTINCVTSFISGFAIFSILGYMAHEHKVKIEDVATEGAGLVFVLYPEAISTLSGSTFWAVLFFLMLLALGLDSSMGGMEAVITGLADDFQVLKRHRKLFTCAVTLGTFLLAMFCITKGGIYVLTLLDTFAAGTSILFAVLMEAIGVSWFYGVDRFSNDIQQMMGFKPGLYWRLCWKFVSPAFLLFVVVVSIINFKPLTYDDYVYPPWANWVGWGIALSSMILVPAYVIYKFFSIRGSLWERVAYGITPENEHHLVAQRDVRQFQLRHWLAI
T1 sequence (P31652 whole entry): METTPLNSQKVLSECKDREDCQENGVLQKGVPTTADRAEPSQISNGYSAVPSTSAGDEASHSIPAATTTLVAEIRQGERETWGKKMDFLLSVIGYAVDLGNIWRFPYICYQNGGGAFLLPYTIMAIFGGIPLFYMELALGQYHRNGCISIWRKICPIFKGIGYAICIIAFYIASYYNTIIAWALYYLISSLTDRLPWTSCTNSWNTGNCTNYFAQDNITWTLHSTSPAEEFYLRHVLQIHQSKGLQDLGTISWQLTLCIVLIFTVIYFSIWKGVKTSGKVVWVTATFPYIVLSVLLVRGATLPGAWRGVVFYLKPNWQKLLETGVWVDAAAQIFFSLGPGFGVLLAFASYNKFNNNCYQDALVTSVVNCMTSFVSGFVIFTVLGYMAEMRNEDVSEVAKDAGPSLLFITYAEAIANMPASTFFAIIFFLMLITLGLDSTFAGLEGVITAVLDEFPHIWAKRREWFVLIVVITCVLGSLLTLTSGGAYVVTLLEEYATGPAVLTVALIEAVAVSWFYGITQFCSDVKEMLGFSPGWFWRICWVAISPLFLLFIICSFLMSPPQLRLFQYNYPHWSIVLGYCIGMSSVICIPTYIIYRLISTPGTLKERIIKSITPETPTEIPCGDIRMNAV

| SMILES | inhibition (NMDA) | IC50 (5-HT uptake; [7]) | IC50 (5-HT uptake; [8]) | IC50 (norepinephrine uptake; [7]) | IC50 (norepinephrine uptake; [8]) | plasma half life [1] | plasma half life ([1]; after 1 week of dosing) | half-life of oral levorphanol ([1]; one patient) | half-life of oral levorphanol ([1]; second patient) | selectivity for serotonin reuptake inhibition over norepinephrine reuptake inhibition [2] | mean time to steady state ([3]; using the average of the two reported values) | time to reach steady state therapeutic concentration upon repeated dosing ([3]; using the higher reported 30 hour half-life) | time to reach steady state therapeutic concentration upon repeated dosing ([3]; using the lower reported 16 hour half-life) | duration of analgesic action [4] | duration of analgesic action [5] | dose equianalgesic to oral morphine sulfate 30 mg ([6]; acute pain) | dose equianalgesic to oral morphine sulfate 30 mg ([6]; chronic pain) |
| --- | --- | --- | --- | --- | --- | --- | --- | --- | --- | --- | --- | --- | --- | --- | --- | --- | --- |
| CN1CC[C@]23CCCC[C@H]2[C@H]1Cc1ccc(O)cc13 [Levorphanol Tartrate, morphinan-3-ol, 17-methyl-, [R—(R*,R*)]-2,3-dihydroxybutane-dioate (1:1) (salt) dihydrate] | 91% | 0.0302 µM | 0.052 µM | 1.22 µM | 2.1 µM |  |  |  |  |  |  |  |  |  |  |  |  |
| CN1CC[C@]23CCCC[C@H]2[C@H]1Cc1ccc(O)cc13 [levorphanol, l 3-hydroxy-N-methylmorphinan] |  |  |  |  |  | 12 to 16 h | 90 to 120 h | approximately 16 hours | 30 h | approximately 40 fold | 115 h | 150 h | 80 h | shorter than that of morphine | shorter than that of morphine | 4 mg | 1 mg |

— patent US20120065221A1, “Extended Release Oral Pharmaceutical Compositions of 3-Hydroxy-N-Methylmorphinan and Method of Use” (priority 2009, published 2012)
